One may read the IC50 as the concentration that inhibits the measured activity by half. As a reminder, the Kd is the constant that tells how readily two partners part at equilibrium. For orientation: residence time means how long the partners stay bound on average.

This passage reports IC50, Kd and residence time results from patent publication US20180118721A1, “PYRIMIDINE DERIVATIVES” (Merck Patent GmbH, priority 2015, published 2018).

The target of test [1] is T1, purified human recombinant MTH1 (human MTH1, residues 42-197) (Homo sapiens, UniProt P36639).
T1 construct: human MTH1, residues 42-197, Uniprot-ID: P36639, expressed in E. coli; made in house; host or cells: E. coli
In words: MTH1 enzymatic assay (luminescence-based, PPiLight). In kind it is biochemical. Particulars: 6 μM 8-oxo-dGTP, Table 1, grouped. On the procedure:
The IC50 value was determined by a MTH1 enzymatic assay. The assay comprises the principal steps of incubating a mixture of MTH1, the compound in question at different concentrations and 8-oxo-2′-deoxyguanosine-5′-triphosphate (8-oxo-dGTP) in assay buffer. Nucleotide triphosphate hydrolysis by MTH1, i.e. decomposition of 8-oxo-2′-deoxyguanosine-5′-triphosphate, produces 8-oxo-2′-deoxyguanosine-5′-monophosphate (8-oxo-dGMP) and pyrophosphate (PPi). The amount of generated pyrophosphate (PPi) is then measured by a bioluminescent reaction. In detail: The MTH1 (human mutT homologue 1) enzymatic assay is performed as a luminescence-based 384-well assay. […] The assay buffer contains 100 mM Tris-acetate pH 7.5, 40 mM NaCl, 10 mM Mg(OAc)2, 0.005% Tween 20 and 2 mM dithiothreitol (DTT). […] Then, in a second step, the substrate 8-oxo-dGTP is added and the reaction mixture is incubated for 30 minutes at 22° C. The pharmacologically relevant assay volume is 5 PI. The final concentrations in the assay during incubation of the reaction mixture are 0.1-0.2 nM, typically 0.1 nM, MTH1 and 6 μM 8-oxo-dGTP. After incubation of the reaction mixture, the generation of pyrophosphate (PPi) as a result of nucleotide triphosphate (8-oxo-dGTP) hydrolysis by MTH1 is detected using the PPiLight inorganic pyrophosphate assay kit (Lonza) (third step). 2 to 5 μl, such as 3 to 5 μl, typically 3 or 4 μl, for instance 4 μl, of a 1:1 mixture of PPiLight converting reagent (AMP) and PPiLight detection reagent are added to the reaction mixture. In the presence of pyrophosphate, the detection reagent catalyzes the conversion of AMP to ATP. Luciferase then produces light from the newly formed ATP and luciferin. The amount of light produced is directly proportional to the amount of PPi in the sample. Following signal development for 1 h the plates are analysed in an EnVision (PerkinElmer) microplate reader using the ultra sensitive luminescence option. Data are processed employing the Genedata Screener software. In particular, IC50 values are determined in the usual manner (using the Hill Equation) by fitting a dose-response curve to the data points using nonlinear regression analysis.
Hill Equation: Y=S0+(Sinf−S0)/(1+(10^logIC50/10^c)^n); Y: luminescence signal (response), S0: activity level at zero concentration of test compound, Sinf=activity level at infinite concentration, Hill coefficient n=measure of the slope at IC50, c=concentration in logarithmic units corresponding to the values on the x-axis of the dose response curve plot

Test [2] concerns the target T2, humanMTH1 (aminoacids 42 to 197) (Homo sapiens, UniProt P36639).
T2 construct: humanMTH1 (aminoacids 42 to 197); His tag at the N-terminus; purchased Abnova ab99390; host or cells: E. coli
In words: Binding affinities and kinetics on MTH1 surfaces by surface plasmon resonance (SPR). Particulars: for Kd: SPR, Biacore4000, 25° C., Table 1, grouped, read-out: KD IC50; for residence time: on MTH1, calculated on the basis of the KD values, read-out: Residence time. On the procedure:
The SPR experiments were performed using a Biacore4000 instrument. […] HumanMTH1 was immobilized on Biacore CM5 chips at 25° C. and a flow rate of 10 μL/min using amine coupling at pH 5.5 and in presence of 1 μM MSC2567771B-1 according to Biacore's standard protocol. MTH1 was applied at a concentration of 10 μg/mL and depending on the duration of the injection time immobilization levels between 500 and 2,000 RU were obtained. Sample compounds were applied in form of titration series with a doubling of concentration at each subsequent injection. In general, 10 concentrations were injected covering a dilution range of 500 fold. Before and after each of these titration series the binding capability of the surface was controlled by the injection of the positive control S-Crizotinib at a fixed concentration of 2 μM. Kinetic titration experiments were performed at 25° C. with a flow rate of 30 μL/min, a sample contact time of 90 sec and a dissociation time of 420 sec in running buffer (20 mM Tris-HCl (Tris(hydroxymethyl)-aminomethane HCl) pH 7.40, 150 mM NaCl, 5 mM MgCl2, 1 mM DTT (dithiothreitol), 0.1 mM EGTA (ethylene glycol tetraacetic acid), 0.05% Tween 20) containing 2% DMSO (dimethyl sulfoxide). Buffer injections identical to the sample injections were executed at the beginning of the successive series for the purpose of double referencing. Solvent correction cycles (eight correction points, 1.4%-2.8% DMSO) were run at the same intervals. For surface conditioning ten start-up cycles (buffer injections) were run. Data points were collected at a sample rate of 10 Hz.
Data sets were processed and analyzed using the software Biacore4000 Evaluation, version 1.0. Solvent corrected and double-referenced association and dissociation phase data were fitted to a simple 1:1 interaction model with mass transport limitations.
Measured values are indicated as KD IC50 in the Table below.

As to `Nc1nc(NC2CC2)cc(N2CCC[C@H]2Cc2ccccc2Cl)n1` [Example 48, 6-[(S)-2-(2-Chloro-benzyl)-pyrrolidin-1-yl]-N4-cyclopropyl-pyrimidine-2,4-diamine], the IC50 in test [1] lay in the range of 1 to 100 nM. Moreover, the dissociation constant (Kd) in test [2] was 1 to 100 nM.
Take `Nc1nc(NC2CC2)cc(N2CC[C@@](O)(C(F)(F)F)C2)n1` [Example 49, (S)-1-(2-Amino-6-cyclopropylamino-pyrimidin-4-yl)-3-trifluoromethyl-pyrrolidin-3-ol]: in test [1], the IC50 was less than 1 nM. Besides, the Kd in test [2] fell in the range of 1 to 100 nM.
In the same order, the values of `Nc1nc(NC2CC2)cc(N2CC[C@](O)(C(F)(F)F)C2)n1` [Example 50, (R)-1-(2-Amino-6-cyclopropylamino-pyrimidin-4-yl)-3-trifluoromethyl-pyrrolidin-3-ol] are 1 to 100 nM and 1 to 100 nM.
The like results for `Nc1nc(NC2CC2)cc(N2CCCc3ccccc32)n1` [Example 51, N4-Cyclopropyl-6-(3,4-dihydro-2H-quinolin-1-yl)-pyrimidine-2,4-diamine] were, in that order, less than 1 nM and 1 to 100 nM.
In the same order, the values of `C[C@@]1(O)CCN(c2cc(NC3CC3)nc(N)n2)C1` [Example 52, (R)-1-(2-Amino-6-cyclopropylamino-pyrimidin-4-yl)-3-methyl-pyrrolidin-3-ol] are 1 to 100 nM and 1 to 100 nM.
As for `C[C@]1(O)CCN(c2cc(NC3CC3)nc(N)n2)C1` [Example 53, (S)-1-(2-Amino-6-cyclopropylamino-pyrimidin-4-yl)-3-methyl-pyrrolidin-3-ol], in test [1], the IC50 was 1 to 100 nM. The Kd in test [2] was 1 to 100 nM.
Take `CC1Cc2ccccc2N1c1cc(NC2CC2)nc(N)n1` (centres unmarked) [Example 58, N4-Cyclopropyl-6-(2-methyl-2,3-dihydro-indol-1-yl)-pyrimidine-2,4-diamine]: the IC50 in test [1] was 1 to 100 nM. In addition, the Kd in test [2] lay within 1 to 100 nM.
On to `CNc1cc(N2CC[C@H](O)C2)nc(N)n1` [Example 62, (S)-1-(2-Amino-6-methylamino-pyrimidin-4-yl)-pyrrolidin-3-ol], for which the IC50 in test [1] was 1 to 100 nM. In addition, in test [2], the dissociation constant (Kd) is 1 to 100 nM.
`Nc1nc2c(c(N3CCC(F)(F)C3)n1)CCCN2` [Example 63, 4-(3,3-Difluoro-pyrrolidin-1-yl)-5,6,7,8-tetrahydro-pyrido[2,3-d]pyrimidin-2-ylamine]: the half-maximal inhibitory concentration (IC50) in test [1] is less than 1 nM. The Kd in test [2] was in the range of 1 to 100 nM.
Consider `Nc1nc(NCC2CCCC2)cc(N2CCC(F)(F)C2)n1` [Example 76, N4-Cyclopentylmethyl-6-(3,3-difluoro-pyrrolidin-1-yl)-pyrimidine-2,4-diamine], for which, in test [1], the half-inhibitory concentration (IC50) was 1 to 100 nM. In addition, in test [2], the Kd lay within 1 to 100 nM.
Take `COc1ccccc1CCNc1cc(N2CCC(F)(F)C2)nc(N)n1` [Example 77, 6-(3,3-Difluoro-pyrrolidin-1-yl)-N4-[2-(2-methoxy-phenyl)-ethyl]-pyrimidine-2,4-diamine]: in test [1], the IC50 lay within 1 to 100 nM. Also, the dissociation constant Kd in test [2] fell in the range of 1 to 100 nM.
As for `NC(=O)[C@H]1CCN(c2nc(N)nc3c2CCCN3)C1` [Example 78, (S)-1-(2-Amino-5,6,7,8-tetrahydro-pyrido[2,3-d]pyrimidin-4-yl)-pyrrolidine-3-carboxylic acid amide-formiate], the 50% inhibitory concentration (IC50) in test [1] is less than 1 nM. Also, in test [2], the Kd lay within 1 to 100 nM.
On to `CNc1cc(N2CCCCC2c2cc3ccccc3o2)nc(N)n1` (centres unmarked) [Example 81, 6-(2-Benzofuran-2-yl-piperidin-1-yl)-N4-methyl-pyrimidine-2,4-diamine], for which the half-maximal inhibitory concentration (IC50) in test [1] is less than 1 nM. Further, the Kd in test [2] was in the range of 1 to 100 nM.
In the same order, the values of `CNc1cc(N2CCCC2Cc2ccc(Cl)cc2)nc(N)n1` (centres unmarked) [Example 84, 6-[2-(4-Chloro-benzyl)-pyrrolidin-1-yl]-N4-methyl-pyrimidine-2,4-diamine] are less than 1 nM and 1 to 100 nM.
In the same order, the values of `CNc1cc(N2CCCC2Cc2cccc(Cl)c2)nc(N)n1` (centres unmarked) [Example 85, 6-[2-(3-Chloro-benzyl)-pyrrolidin-1-yl]-N4-methyl-pyrimidine-2,4-diamine] are less than 1 nM and less than 1 nM.
The like results for `Nc1nc(NC2CC2)cc(N2C[C@H](O)CC2=O)n1` [Example 86, (R)-1-(2-Amino-6-cyclopropylamino-pyrimidin-4-yl)-4-hydroxy-pyrrolidin-2-one] were, in that order, greater than 100 nM and greater than 100 nM.
`CCCCOC(=O)CC1CCCN1c1cc(NC2CC2)nc(N)n1` (centres unmarked) [Example 87, [1-(2-Amino-6-cyclopropylamino-pyrimidin-4-yl)-pyrrolidin-2-yl]-acetic acid butyl ester]: in test [1], the half-inhibitory concentration (IC50) lay within 1 to 100 nM. Besides, the Kd in test [2] is 1 to 100 nM.
Consider `Nc1nc(NC2CC2)cc(N2CCCC2C(=O)NCc2ccccc2Cl)n1` (centres unmarked) [Example 88, 1-(2-Amino-6-cyclopropylamino-pyrimidin-4-yl)-pyrrolidine-2-carboxylic acid 2-chloro-benzylamide], for which, in test [1], the 50% inhibitory concentration (IC50) is greater than 100 nM. For the same compound, the Kd in test [2] is greater than 100 nM.
On to `CNc1cc(N2CCC[C@H]2Cc2ccccc2OC)nc(N)n1` [Example 92, 6-[(S)-2-(2-Methoxy-benzyl)-pyrrolidin-1-yl]-N4-methyl-pyrimidine-2,4-diamine], for which the IC50 in test [1] is less than 1 nM. The residence time in test [2] was no less than 10 min.
Regarding `Nc1nc(NC2CC2)cc(N2CCCC2=O)n1` [Example 94, 1-(2-Amino-6-cyclopropylamino-pyrimidin-4-yl)-pyrrolidin-2-one], in test [1], the IC50 was greater than 100 nM. The dissociation constant (Kd) in test [2] is greater than 100 nM.
As to `CNc1cc(N2CCCCC2Cc2ccc(OC)cc2)nc(N)n1` (centres unmarked) [Example 95, 6-[2-(4-Methoxy-benzyl)-piperidin-1-yl]-N4-methyl-pyrimidine-2,4-diamine], the half-maximal inhibitory concentration (IC50) in test [1] is less than 1 nM. Moreover, the residence time in test [2] is no less than 10 min.
In the case of `Nc1nc(NC2CC2)cc(N2CCCC2CC(=O)O)n1` (centres unmarked) [Example 97, [1-(2-Amino-6-cyclopropylamino-pyrimidin-4-yl)-pyrrolidin-2-yl]acetic acid], the IC50 in test [1] fell in the range of 1 to 100 nM. Moreover, in test [2], the Kd was greater than 100 nM.
Turning to `CNc1cc(N2CCCC2Cc2ccccc2Cl)nc(N)n1` (centres unmarked) [Example 98, 6-[2-(2-Chloro-benzyl)-pyrrolidin-1-yl]-N4-methyl-pyrimidine-2,4-diamine], the IC50 in test [1] was less than 1 nM. Besides, in test [2], the Kd is 1 to 100 nM and the residence time was no less than 10 min.
As to `CNc1cc(N2CCCCC2Cc2ccccc2OC)nc(N)n1` (centres unmarked) [Example 100, 6-[2-(2-Methoxy-benzyl)-piperidin-1-yl]-N4-methyl-pyrimidine-2,4-diamine], in test [1], the half-maximal inhibitory concentration (IC50) was less than 1 nM. Besides, in test [2], the Kd fell in the range of 1 to 100 nM and the residence time was no less than 10 min.
Take `CNc1cc(N2CCCCC2Cc2ccccc2Cl)nc(N)n1` (centres unmarked) [Example 105, 6-[2-(2-Chloro-benzyl)-piperidin-1-yl]-N4-methyl-pyrimidine-2,4-diamine]: the IC50 in test [1] was less than 1 nM. Also, in test [2], the Kd lay in the range of 1 to 100 nM and the residence time was no less than 10 min.
